The text below walks through data of publication PMC9436075, “A structural basis for the functional differences between the cytosolic and plastid phosphoglucose isomerase isozymes” (PLoS ONE, 2022).

Experiment [1] has as its target T1, TaPGIp (Triticum aestivum, UniProt A0A3B6LNA8).
T1 construct: gene LOC123112261; plastid PGI, CTD 467-557, transit peptide probably removed; homodimer
T1 sequence (A0A3B6LNA8 64-620): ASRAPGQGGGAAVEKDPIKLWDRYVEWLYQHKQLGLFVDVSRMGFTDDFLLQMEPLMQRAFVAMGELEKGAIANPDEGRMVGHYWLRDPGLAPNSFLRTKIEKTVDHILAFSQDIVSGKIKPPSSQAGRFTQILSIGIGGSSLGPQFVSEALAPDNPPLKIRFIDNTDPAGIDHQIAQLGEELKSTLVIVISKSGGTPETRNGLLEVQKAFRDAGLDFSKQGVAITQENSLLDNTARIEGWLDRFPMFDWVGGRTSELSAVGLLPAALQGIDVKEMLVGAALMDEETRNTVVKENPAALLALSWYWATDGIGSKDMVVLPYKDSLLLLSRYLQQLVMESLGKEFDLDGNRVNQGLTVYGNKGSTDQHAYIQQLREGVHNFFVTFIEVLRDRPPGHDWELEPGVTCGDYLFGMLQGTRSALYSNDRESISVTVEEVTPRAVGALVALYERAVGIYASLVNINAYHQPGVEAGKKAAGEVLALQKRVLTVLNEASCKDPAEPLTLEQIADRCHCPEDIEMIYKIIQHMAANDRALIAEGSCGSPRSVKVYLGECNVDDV
The experiment is described as follows: PGI activity inhibition, dose-response. The experiment is classed as biochemical. Particulars: read-out: IC50E4P.

Experiment [2] deals with T2, TaPGIc (Triticum aestivum, UniProt Q1PBI3).
T2 construct: gene GPI; cytosolic PGI, CTD 510-567, HLHM 444-466; homodimer
T2 sequence (Q1PBI3 1-567): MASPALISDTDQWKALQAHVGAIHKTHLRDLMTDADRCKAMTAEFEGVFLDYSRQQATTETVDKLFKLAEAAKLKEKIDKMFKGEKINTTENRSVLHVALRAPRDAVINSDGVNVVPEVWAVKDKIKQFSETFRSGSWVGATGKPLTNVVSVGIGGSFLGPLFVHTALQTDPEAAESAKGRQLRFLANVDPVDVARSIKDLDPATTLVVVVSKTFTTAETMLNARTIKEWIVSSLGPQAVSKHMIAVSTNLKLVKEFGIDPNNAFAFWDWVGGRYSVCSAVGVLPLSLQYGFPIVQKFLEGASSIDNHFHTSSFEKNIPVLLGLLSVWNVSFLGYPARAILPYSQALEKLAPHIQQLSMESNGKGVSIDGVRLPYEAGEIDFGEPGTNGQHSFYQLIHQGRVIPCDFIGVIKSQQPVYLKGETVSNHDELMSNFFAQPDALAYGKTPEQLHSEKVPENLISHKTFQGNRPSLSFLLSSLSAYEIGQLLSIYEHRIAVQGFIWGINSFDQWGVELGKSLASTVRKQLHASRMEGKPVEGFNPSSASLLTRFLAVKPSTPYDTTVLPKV
Kind of experiment: PGI activity inhibition, dose-response. Format: biochemical. The settings on record: read-out: IC50E4P.

As to `O=C[C@H](O)[C@H](O)COP(=O)(O)O` [E4P, erythrose 4-phosphate], the values for the IC50 in experiment [1] and in experiment [2] were 760 µM and 130 µM, respectively.
